Patent publication US20140315838A1, “Methods of Treating Recurring Bacterial Infection” (Optimer Pharmaceuticals, Inc., priority 2010, published 2014)

System: Clostridium difficile
Assay: Phase 3 randomized, double-blind clinical trials of 10-day treatment of C. difficile infection: recurrence rate
Assay type: in vivo, human
Conditions: 10-day oral treatment (fidaxomicin 200 mg bid, vancomycin 125 mg qid), relapse out to 4 weeks after end of treatment
Experimental: Subjects with mild to moderate C. difficile, males and females aged […] with >3 diarrheal (liquid or unformed) stools/day and with a positive enzyme immunoassay for C. difficile toxin or cell cytotoxicity assay and no more than 24 hours of prior treatment for C. difficile were eligible for enrollment. Only subjects with a primary episode or first relapse of disease were eligible. […] Subjects with ileus, WBC >30×10^9/L, toxic megacolon, or concern about life-threatening CDI were excluded from study entry. Subjects with severe underlying disease who were not expected to survive for 72 hours regardless of cause, who had had more than a single occurrence within 3 months, or who had Crohn's disease or ulcerative colitis were also excluded. […] They were evaluated for clinical cure at end of therapy and relapse out to 4 weeks following the end of treatment.

[1] = Stratum: Single Prior Episode of CDI (recurring CDI)

SMILES	Recurrence Rate (Stratum: No Prior Episode of CDI)	Recurrence Rate [1]	Recurrence Rate (Stratum: Single Prior Episode of CDI (recurring CDI), listed as fidaxomicin)	Recurrence Rate (Stratum: Single Prior Episode of CDI (recurring CDI), listed as vancomycin)
CCc1c(Cl)c(O)c(Cl)c(O)c1C(=O)O[C@H]1[C@H](O)[C@H](OC)[C@H](OC/C2=C\C=C\C[C@H](O)/C(C)=C/[C@H](CC)[C@@H](O[C@@H]3OC(C)(C)[C@@H](OC(=O)C(C)C)[C@H](O)[C@@H]3O)/C(C)=C/C(C)=C/C[C@@H]([C@@H](C)O)OC2=O)O[C@@H]1C [Fidaxomicin]	38/325 (11.6%)	13/66 (19.6%)	19.6%	–
CN[C@H](CC(C)C)C(=O)N[C@H]1C(=O)N[C@@H](CC(N)=O)C(=O)N[C@H]2C(=O)N[C@H]3C(=O)N[C@H](C(=O)N[C@H](C(=O)O)c4cc(O)cc(O)c4-c4cc3ccc4O)[C@H](O)c3ccc(c(Cl)c3)Oc3cc2cc(c3O[C@@H]2O[C@H](CO)[C@@H](O)[C@H](O)[C@H]2O[C@H]2C[C@](C)(N)[C@H](O)[C@H](C)O2)Oc2ccc(cc2Cl)[C@H]1O [Vancomycin, reference compound]	–	22/62 (35.5%)	–	35.5%
